Data on five compounds can be found in US9421203B2, “Sensitization of cancer cells to DNA damage by inhibiting kinases essential for DNA damage checkpoint control” (Institute for Cancer Research, priority 2012, dated 2016).

Molecules are shown by their SMILES. “Also recorded” adds a separate entry of the source.

For experiment [1], the system named is PANC1 cells. It is filed as cell-based. The following applies: for sensitization of PANC1 cells to gemcitabine: increasing gemcitabine 24 h, then UCN-01 100 nM, bosutinib or sunitinib 1 μM for 48 h (FIG. 1B).
Experiment [2] has as its system PANC1 cells. The experiment can be described thus: Immunofluorescence of mitotic figures in gemcitabine-arrested cells. It is filed as cell-based. The settings on record: UCN-01 100 nM or Bos-I 1000 nM (FIG. 4). An excerpt:
Shown are representative images of cells from each treatment.
The mitotic figures of cells forced into mitosis by the newly identified sensitizers were examined to determine how they compared to checkpoint override by UCN-01. […] The defects include two lobes of chromatin that lie outside of the spindle, with the detached kinetochores lying within the spindle.
It was observed that overriding the gemcitabine induced S phase checkpoint arrest with Chk1 inhibitors (UCN-01) results in a discrete and reproducible mitotic defect called MUGs (mitotically unreplicated genomes). The defining feature of MUGs is the unreplicated centromeres in the genome are physically detached from the chromosome mass (FIG. 4).

The subject of experiment [3] is PANC1 cells. The experiment can be described thus: Time-lapse video-microscopy of checkpoint override (premature mitosis) in PANC1 cells. Type of experiment: cell-based. The settings on record: gemcitabine 24 h, then inhibitor 1 μM (UCN-01 100 nM), time-lapse 24 hours. The protocol: PANC1 cells were treated with gemcitabine for 24 hours before the addition of kinase inhibitors (1 μM), and filming commenced thereafter.
Time-lapse video microscopy was used to document the fates of cells treated with gemcitabine with and without the Chk1 inhibitor, UCN-01 (FIG. 3).

For experiment [4], the system named is PANC1 cells. Description: cells. Type of experiment: cell-based. The following applies: for viability of gemcitabine treated PANC1 cells: gemcitabine 10 nM 24 h, then inhibitor 1 μM for 48 h (FIG. 1A). Here is the method: FIGS. 7A-7D show the viability of PANC1 cells treated with increasing concentrations of (FIG. 7A) doxorubicin or (FIG. 7B) cisplatin (24 h) before the addition of UCN-01 (100 nM) or Bos-I (1000 nM) for a further 48 hours.
Identification of clinically relevant kinase inhibitors that sensitize cells to gemcitabine. In the experiments described in this Example, the general protocol was to treat pancreatic cancer cell line (Panc-1) with a dose of gemcitabine that induces DNA damage and arrests cell cycle progression. A panel of nine different clinically relevant kinase inhibitors (FIG. 1A) were added to gemcitabine treated cells, and were assessed for their ability to enhance killing of pancreatic cancer cells to gemcitabine. PANC1 cells were treated with a sub-lethal (IC20) concentration of gemcitabine (10 nM) for 24 hours (a time and concentration sufficient to induce DNA damage and S phase arrest) and kinase inhibitors (all at 1 μM final) were added for another 48 h before cell viability was measured. UCN-01, a Chk1 inhibitor that is established as a sensitizer of gemcitabine was included as a positive control.

The test system of experiment [5] is PANC1 cells. The experiment can be described thus: Clonogenic survival assay in PANC1 cells. The following applies: gemcitabine 10 nM 24 h. Type of experiment: cell-based. Here is the method: Surviving colonies were determined 10 days later. […] After this time all drugs were removed and cells were plated to determine their efficiency of colony formation after 10 days.

In experiment [6] the test system is Mia-PaCa-II cells. The experiment can be described thus: Mia-PaCa-II cell viability after gemcitabine followed by authentic bosutinib. The following applies: authentic bosutinib at 2.5 μM and 5 μM (FIG. 7D). Type of experiment: cell-based.
Experiment [7] has as its system 300 recombinant human protein kinases. The settings on record: of 300 recombinant human kinases; database / Anastassiadis 2011; cited from earlier work.
Experiment [8] relates to Ba/F3 cells expressing the Bcr-Abl mutant (T3151). The experiment can be described thus: Viability of Ba/F3 cells expressing Bcr-Abl mutant with bendamustine. It is filed as cell-based. The following applies: Bos-I 1000 nM (FIG. 9B). Here is the method:
(§1) FIGS. 9A and 9B show the viability of Ba/F3 cells either expressing (FIG. 9A) the Bcr-Abl wild-type (WT) or (FIG. 9B) the Bcr-Abl mutant (T3151) kinases (lower) treated with increasing concentrations of bendamustine alone or with the addition of Bos-1 (1000 nM).
(§2) It is believed that inhibitors of Src and Abl tyrosine kinases may be effective as a single agent in the treatment of CML (Chronic myelogenous leukemia) where it contains a specific chromosome translocation that fuses the Abl kinase to the Bcr gene. Inhibitors of the Bcr/Abl fusion kinase, such as imatinib and bostunib (Formula I), are effective in the treatment of CML, but resistance (at least for imatinib) invariably occurs. Resistance to imatinib occurs most often as a result of mutations at the gatekeeper position (Threonine 315) within the Abl kinase domain. Such mutants no longer respond to inhibitors such as imatinib. […] (FIG. 9A and FIG. 9B). It is believed that the activity of Bosutinib-isomer against wild type and T3151 mutant is likely mediated through its off-target effects against the DNA damage checkpoint kinases, Wee1 and Chk1.

Experiment [9] addresses Wee 1 (Homo sapiens, UniProt P30291). Description: IC50 / kinase assay toward recombinant Wee1 (MBP or Cdc2 substrate). Type of experiment: biochemical. The following applies: Cdc2 as substrate; data not shown.
For experiment [10], the system named is Tyr15 phosphorylation of Cdc2. Description: Tyr15 phosphorylation of Cdc2 in gemcitabine treated PANC1 cells. Type of experiment: cell-based. The following applies: PANC1 cells treated with gemcitabine. An excerpt:
Inhibition of Tyr15 phosphorylation was not observed for dasatnib, which is fully consistent with its in vitro kinase profile, and its inability to override the DNA damage checkpoint.

Experiment [11] deals with EGF-1 cells. Description: Immunofluorescence of checkpoint override in patient-derived pancreatic cancer cell line EGF-1. It is filed as cell-based. The settings on record: arrest imposed by either gemcitabine or doxorubicin. An excerpt: Quantification of the percentage of cells that enter mitosis/override the checkpoint after treatment with either gemcitabine or doxorubicin is shown (right panel).
Tumor cells were isolated under an IRB-approved protocol and passaged as xenografts in mice. EGF-1 is a cell line that was derived from F1 tumors and used for in vitro studies.

For experiment [12], the system named is Ba/F3 cells expressing the Bcr-Abl wild-type (WT). The experiment can be described thus: Viability of Ba/F3 cells expressing Bcr-Abl wild-type with bendamustine. Type of experiment: cell-based. The settings on record: Bos-I 1000 nM (FIG. 9A). Here is the method:
as §1, §2

Sequence of Wee 1 (P30291 whole entry): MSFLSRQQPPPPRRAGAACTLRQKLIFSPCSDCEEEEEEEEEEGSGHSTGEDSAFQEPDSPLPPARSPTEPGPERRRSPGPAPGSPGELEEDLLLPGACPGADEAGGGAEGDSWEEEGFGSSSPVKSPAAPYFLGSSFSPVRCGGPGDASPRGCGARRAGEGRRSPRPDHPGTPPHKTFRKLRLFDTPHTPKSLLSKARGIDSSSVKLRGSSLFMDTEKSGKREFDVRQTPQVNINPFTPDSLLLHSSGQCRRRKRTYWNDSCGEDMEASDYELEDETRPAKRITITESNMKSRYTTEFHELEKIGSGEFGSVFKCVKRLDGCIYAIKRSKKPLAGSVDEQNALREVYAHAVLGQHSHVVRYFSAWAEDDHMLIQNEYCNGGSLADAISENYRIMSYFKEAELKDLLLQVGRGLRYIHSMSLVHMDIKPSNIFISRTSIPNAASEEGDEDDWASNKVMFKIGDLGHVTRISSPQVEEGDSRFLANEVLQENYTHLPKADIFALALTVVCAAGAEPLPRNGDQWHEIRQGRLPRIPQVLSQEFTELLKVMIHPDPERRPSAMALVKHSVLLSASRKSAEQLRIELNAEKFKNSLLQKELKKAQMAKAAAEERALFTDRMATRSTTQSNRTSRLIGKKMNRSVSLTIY

As to `CN[C@@H]1C[C@H]2O[C@@](C)([C@@H]1OC)n1c3ccccc3c3c4c(c5c6ccccc6n2c5c31)C(=O)N[C@@H]4O` [UCN-01], the “sensitization of PANC1 cells to gemcitabine” value in experiment [1] is listed as “sensitized cells to gemcitabine”. The “mitotic figures of gemcitabine-arrested cells” value in experiment [2] is recorded as “severely perturbed mitotic figures”. In addition, the “checkpoint override / premature entry into mitosis” value in experiment [3] is “forced cells to prematurely enter mitosis; also recorded: increased the number of cells that entered mitosis”.

For `Cn1c(=O)n(-c2ccc(C(C)(C)C#N)cc2)c2c3cc(-c4cnc5ccccc5c4)ccc3ncc21` [BEZ-235], the “viability of gemcitabine treated PANC1 cells” value (“viability” below) in experiment [4] is listed as “significantly reduced viability of cells treated with gemcitabine”.

On to `COc1cc(Nc2c(C#N)cnc3cc(OCCCN4CCN(C)CC4)c(OC)cc23)c(Cl)cc1Cl` [Authentic bosutinib, Bosutinib], for which the “minimum effective concentration to sensitize cells to gemcitabine” value in [1] (PANC1, titration of sensitizer) stood at 750 nM. The “sensitization of PANC1 cells to gemcitabine” value in experiment [1] is “sensitized cells to gemcitabine”. Further, the “viability” value in experiment [4] is recorded as “significantly reduced viability of cells treated with gemcitabine”. Moreover, the “sensitization to killing by gemcitabine, clonogenic survival” value in experiment [5] (compound 0.5 μM for 3 h, colonies after 10 days (FIG. 2)) is recorded as “not”. In experiment [6], the “sensitization of Mia-PaCa-II cells to gemcitabine” value is listed as “sensitized to gemcitabine”. In [7], the “number of kinases inhibited by more than 50%” value was 84/300. Further, in experiment [3], the “checkpoint override / premature entry into mitosis” value is “able to override the checkpoint and force cells into premature mitosis”.

Regarding `COc1cc2c(Nc3cc(Cl)c(OC)c(Cl)c3)c(C#N)cnc2cc1OCCCN1CCN(C)CC1` [Bosutinib isomer, Bosutinib-I], the “killing of cells in combination with Bendamustine” value in experiment [8] and in experiment [12] was “enhanced killing of cells” each time. In addition, the “sensitization of PANC1 cells to doxorubicin” value in [4] (1 μM of the isomer (FIG. 7A)) is listed as “sensitization by the bosutinib isomer was observed”. The “sensitization of PANC1 cells to cisplatin” value in experiment [4] (1 μM of the isomer (FIG. 7B)) is “sensitization by the bosutinib isomer was observed”. Besides, the “sensitization to gemcitabine at 1 uM” value in experiment [4] (PANC1, 1 uM, MTS assay and clonogenic assays) is on record as “sensitized cells to gemcitabine”. Besides, the “viability” value in experiment [4] is on record as “reduced the viability of gemcitabine treated cells in a dose-dependent manner”. Moreover, the “Wee1 inhibitory activity against physiologically relevant substrate Cdc2” value in experiment [9] is “recapitulated the studies that used MBP as a substrate”. Moreover, the “sensitization to killing by gemcitabine, clonogenic survival” value in experiment [5] (compound 1 μM for 3 h, colonies after 10 days (FIG. 2, FIG. 6)) is on record as “sensitized cells to killing by gemcitabine”. Also, the “Tyr15 phosphorylation of Cdc2” value in [10] is listed as “dose-dependent inhibition of Tyr15 phosphorylation”. The “mitotic figures of gemcitabine-arrested cells” value in experiment [2] is listed as “abnormal mitotic figures from gemcitabine-arrested cells that were nearly indistinguishable from UCN-01 treatment”. Further, the “number of kinases inhibited by more than 50%” value in experiment [7] is recorded as 84. The “premature entry into mitosis / checkpoint override in EGF-1 cells” value in [11] is given as “able to prematurely enter mitosis after overriding checkpoint arrests”. Besides, the “checkpoint override / premature entry into mitosis” value in experiment [3] is given as “increased the number of mitotic cells”.

On to `Nc1ccn([C@@H]2O[C@H](CO)[C@@H](O)C2(F)F)c(=O)n1` [gemcitabine, Gemcitabine], for which the CC50 in experiment [4] (Homo sapiens, PANC-1, read-out: LC50 of gemcitabine alone) is over 30 nM.
